In patent US20080107623A1, “Inhibitors of Hepatitis C Virus” (Bristol-Myers Squibb Company, priority 2006, published 2008):
Read-outs that look alike come from different tables or passages of the source.

Tests used:
[1] = target: T1, human neutrophil elastase (HNE) (Homo sapiens, UniProt P08246); test: Specificity assay, elastase (pNA substrate); format: biochemical; conditions: read-out: HLE activity in the specificity assay (IC50)
T1 construct: purchased Sigma or EMDbiosciences
T1 sequence (P08246 30-267): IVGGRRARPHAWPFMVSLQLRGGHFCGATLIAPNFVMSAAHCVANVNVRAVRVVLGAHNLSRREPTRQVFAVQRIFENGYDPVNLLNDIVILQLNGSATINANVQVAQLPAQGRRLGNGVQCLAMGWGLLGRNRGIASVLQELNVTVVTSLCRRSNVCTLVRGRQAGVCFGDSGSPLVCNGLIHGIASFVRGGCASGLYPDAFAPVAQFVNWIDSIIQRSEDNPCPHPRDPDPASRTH
Description: The specificities of compounds of the present disclosure were determined against a variety of serine proteases: human neutrophil elastase (HNE), porcine pancreatic elastase (PPE) and human pancreatic chymotrypsin and one cysteine protease: human liver cathepsin B. In all cases, a 96-well plate format protocol using colorimetric p-nitroaniline (pNA) substrate or fluorometric Amino-Methyl-Coumarin (AMC) substrate, specific for each enzyme was used as described previously (PCT Patent Application No. WO 00/09543) with some modifications. All enzymes were purchased from Sigma or EMDbiosciences while the substrates were from Bachem.
Each pNA assay included a 2 h enzyme-inhibitor pre-incubation at room temperature followed by addition of substrate and hydrolysis to ˜15% conversion as measured on a Spectramax Pro microplate reader. The cathepsin B assay was initiated by adding substrate to a 10 min enzyme-inhibitor pre-incubation at room temperature, and the assay plate measured immediately using the Cytofluor Series 4000. Compound concentrations varied from 100 to 0.4 μM depending on their potency.
50 mM Tris(hydroxymethyl)aminomethane hydrochloride (Tris-HCl) pH 8, 0.5 M Sodium Sulfate (Na2SO4), 50 mM NaCl, 0.1 mM EDTA, 3% DMSO, 0.01% Tween-20 with: […]
The percentage of inhibition was calculated using the formula: [1−((UVinh−UVblank)/(UVctl−UVblank))]×100 […]

[2] = system: HCV replicon in HUH-7 cells; test: HCV replicon FRET assay; format: cell-based, HCV strain 1b; conditions: Hepatitis C virus
Source text: An HCV replicon whole cell system was established as described by Lohmann V, Korner F, Koch J, Herian U, Theilmann L, Bartenschlager R., Science 285(5424):110-3 (1999). This system enabled us to evaluate the effects of our HCV Protease compounds on HCV RNA replication. Briefly, using the HCV strain 1b sequence described in the Lohmann paper (Assession number: AJ238799), an HCV cDNA was synthesized by Operon Technologies, Inc. (Alameda, Calif.), and the full-length replicon was then assembled in plasmid pGem9zf(+) (Promega, Madison, Wis.) using standard molecular biology techniques. The replicon consists of (i) the HCV 5′ UTR fused to the first 12 amino acids of the capsid protein, (ii) the neomycin phosphotransferase gene (neo), (iii) the IRES from encephalomyocarditis virus (EMCV), and (iv) HCV NS3 to NS5B genes and the HCV 3′ UTR. Plasmid DNAs were linearized with ScaI and RNA transcripts were synthesized in vitro using the T7 MegaScript transcription kit (Ambion, Austin, Tex.) according to manufacturer's directions. In vitro transcripts of the cDNA were transfected into the human hepatoma cell line, HUH-7. […] Resulting cell lines were characterized for positive and negative strand RNA production and protein production over time.
The HCV replicon FRET assay was developed to monitor the inhibitory effects of compounds described in the disclosure on HCV viral replication. HUH-7 cells, constitutively expressing the HCV replicon, were grown in Dulbecco's Modified Eagle Media (DMEM) (Gibco-BRL) containing 10% Fetal calf serum (FCS) (Sigma) and 1 mg/ml G418 (Gibco-BRL). Cells were seeded the night before (1.5×10^4 cells/well) in 96-well tissue-culture sterile plates. Compound and no compound controls were prepared in DMEM containing 4% FCS, 1:100 Penicillin/Streptomysin (Gibco-BRL), 1:100 L-glutamine and 5% DMSO in the dilution plate (0.5% DMSO final concentration in the assay). Compound/DMSO mixes were added to the cells and incubated for 4 days at 37° C. After 4 days, cells were first assessed for cytotoxicity using alamar Blue (Trek Diagnotstic Systems) for a CC50 reading. The toxicity of compound (CC50) was determined by adding 1/10th volume of alamar Blue to the media incubating the cells. After 4 hours, the fluorescence signal from each well was read, with an excitation wavelength at 530 nm and an emission wavelength of 580 nm, using the Cytofluor Series 4000 (Perspective Biosystems). Plates were then rinsed thoroughly with Phosphate-Buffered Saline (PBS) (3 times 150 μl). The cells were lysed with 25 μl of a lysis assay reagent containing an HCV protease substrate (5× cell Luciferase cell culture lysis reagent (Promega #E153A) diluted to 1× with distilled water, NaCl added to 150 mM final, the FRET peptide substrate (as described for the enzyme assay above) diluted to 10 μM final from a 2 mM stock in 100% DMSO. […]. The plate was then placed into the Cytofluor 4000 instrument which had been set to 340 nm excitation/490 nm emission, automatic mode for 21 cycles and the plate read in a kinetic mode. EC50 determinations were carried out as described for the IC50 determinations.

COc1c(O[C@@H]2C[C@H]3C(=O)N[C@]4(C(=O)NS(=O)(=O)C5CC5)C[C@H]4/C=C\CCCCC[C@H](NC(=O)OC(C)(C)C)C(=O)N3C2)ccc2c(Cl)nccc12 [Compound 3]
IC50 [1]: > 25000 nM
EC50 ([2]; 96 h, HUH-7 replicon cells, 4 days, read-out: EC50 in the replicon FRET assay): 14.6 nM
EC50 ([2]; Huh-7, HCV replicon, which replicon assay not stated, read-out: EC50 Activity Range): < 100 nM
